Calls of active or inactive are those of the source. No rule for the calls is given here.

In this data set the test system is CCRIS mutagenicity, Ames/micronucleus/aberration tests. Description: CCRIS mutagenicity studies.
Setting [1] is: Test System: AMES SALMONELLA TYPHIMURIUM, Strain/Indicator: TA98, Metabolic Activation: NONE, Method: PREINCUBATION
The mark [2] stands for this setting: Test System: AMES SALMONELLA TYPHIMURIUM, Strain/Indicator: TA100, Metabolic Activation: NONE, Method: PREINCUBATION
The mark [3] stands for this setting: Test System: AMES SALMONELLA TYPHIMURIUM, Strain/Indicator: TA1535, Metabolic Activation: NONE, Method: PREINCUBATION
[4] abbreviates: Test System: AMES SALMONELLA TYPHIMURIUM, Strain/Indicator: TA98, Metabolic Activation: NONE, Method: STANDARD PLATE.
Where [5] appears, read: Test System: AMES SALMONELLA TYPHIMURIUM, Strain/Indicator: TA100, Metabolic Activation: NONE, Method: STANDARD PLATE.

With `Nc1nc(N)nc(N)n1`, the mutagenic call (End Point: IN VITRO CHROMOSOMAL ABERRATIONS, Test System: CHINESE HAMSTER OVARY CELLS, Metabolic Activation: NONE) is “inactive; negative”; the mutagenic call (End Point: IN VITRO CHROMOSOMAL ABERRATIONS, Test System: CHINESE HAMSTER OVARY CELLS, Metabolic Activation: RAT, LIVER, S-9, AROCLOR 1254) was “inactive; negative”; the mutagenic call (Test System: AMES SALMONELLA TYPHIMURIUM, Strain/Indicator: TA98, Metabolic Activation: HAMSTER, LIVER, S-9, AROCLOR 1254, Method: PREINCUBATION) is “inactive; negative”; the mutagenic call under setting [1] is “inactive; negative”; the mutagenic call (Test System: AMES SALMONELLA TYPHIMURIUM, Strain/Indicator: TA98, Metabolic Activation: RAT, LIVER, S-9, AROCLOR 1254, Method: PREINCUBATION) is “inactive; negative”; the mutagenic call (Test System: AMES SALMONELLA TYPHIMURIUM, Strain/Indicator: TA100, Metabolic Activation: HAMSTER, LIVER, S-9, AROCLOR 1254, Method: PREINCUBATION) is “inactive; negative”. Also, the mutagenic call runs as follows: under setting [2], “inactive; negative”; (Test System: AMES SALMONELLA TYPHIMURIUM, Strain/Indicator: TA100, Metabolic Activation: RAT, LIVER, S-9, AROCLOR 1254, Method: PREINCUBATION) “inactive; negative”; (Test System: AMES SALMONELLA TYPHIMURIUM, Strain/Indicator: TA1535, Metabolic Activation: HAMSTER, LIVER, S-9, AROCLOR 1254, Method: PREINCUBATION) “inactive; negative”; under setting [3], “inactive; negative”; (Test System: AMES SALMONELLA TYPHIMURIUM, Strain/Indicator: TA1535, Metabolic Activation: RAT, LIVER, S-9, AROCLOR 1254, Method: PREINCUBATION) “inactive; negative”; (Test System: AMES SALMONELLA TYPHIMURIUM, Strain/Indicator: TA1537, Metabolic Activation: HAMSTER, LIVER, S-9, AROCLOR 1254, Method: PREINCUBATION) “inactive; negative”. Besides, the mutagenic call was “inactive; negative” (Test System: AMES SALMONELLA TYPHIMURIUM, Strain/Indicator: TA1537, Metabolic Activation: NONE, Method: PREINCUBATION); “inactive; negative” (Test System: AMES SALMONELLA TYPHIMURIUM, Strain/Indicator: TA1537, Metabolic Activation: RAT, LIVER, S-9, AROCLOR 1254, Method: PREINCUBATION); “inactive; negative” (Test System: UDS RAT HEPATOCYTES, Strain/Indicator: BROMODEOXYURIDINE INCORP, Metabolic Activation: NONE, Method: FLOW CYTOMETRIC ANALYSIS); “inactive; negative” (Test System: UDS RAT HEPATOCYTES, Strain/Indicator: THY INCORP, Metabolic Activation: NONE, Method: AUTORADIOGRAPHY).

As for `O=Nc1ccc(Sc2ccccc2)cc1`, the mutagenic call is “active; positive” (Test System: AMES SALMONELLA TYPHIMURIUM, Strain/Indicator: TA98(NR), Metabolic Activation: NONE, Method: STANDARD PLATE); “active; positive” under setting [4]; “active; positive” (Test System: AMES SALMONELLA TYPHIMURIUM, Strain/Indicator: TA98, Metabolic Activation: RAT, LIVER, S-9, AROCLOR 1254, Method: STANDARD PLATE).

`Nc1ncnc2c1ncn2[C@@H]1O[C@H](CO)C[C@H]1O`: the mutagenic call runs as follows: under setting [4], “active; positive”; (Test System: AMES SALMONELLA TYPHIMURIUM, Strain/Indicator: TA98, Metabolic Activation: RAT, LIVER, S-9, POLYCHLORINATED BIPHENYLS, Method: STANDARD PLATE) “active; positive”; under setting [5], “active; positive”; (Test System: AMES SALMONELLA TYPHIMURIUM, Strain/Indicator: TA100, Metabolic Activation: RAT, LIVER, S-9, POLYCHLORINATED BIPHENYLS, Method: STANDARD PLATE) “active; positive”.

Regarding `CC(=O)CN(COC(C)=O)N=O`, the mutagenic call under setting [3] is “active; positive”.

Regarding `c1ccc2[nH]c(-c3cscn3)nc2c1`, the mutagenic call is “active; positive; uva radiation was 250 uw/cm2” (End Point: IN VITRO MICRONUCLEUS, Test System: HUMAN LYMPHOBLASTOID WTK1 CELLS, Metabolic Activation: NONE); “active; positive” (End Point: IN VITRO MICRONUCLEUS, Test System: V79 CELLS, Metabolic Activation: NONE); “active; positive; uva was 250 uw/cm2” (Test System: AMES SALMONELLA TYPHIMURIUM, Strain/Indicator: TA97, Metabolic Activation: NONE, BACTERIA IRRADIATED IN PRESENCE OF TEST COMPOUND WITH UVA FOR 10 MIN, TRANSFERRED TO MEDIUM, Metabolic Activation: NONE, BACTERIA IRRADIATED IN PRESENCE OF TEST COMPOUND WITH UVA FOR 10 MIN, TRANSFERRED TO MEDIUM, Method: STANDARD PLATE); “inactive; negative” (Test System: AMES SALMONELLA TYPHIMURIUM, Strain/Indicator: TA98, Metabolic Activation: HAMSTER, LIVER, S-9, AROCLOR 1254 (5 OR 30%), Method: PREINCUBATION); “active; positive” (Test System: AMES SALMONELLA TYPHIMURIUM, Strain/Indicator: TA98, Metabolic Activation: HAMSTER, LIVER, S-9, AROCLOR 1254 (10%), Method: PREINCUBATION); “active; positive; response was just barely positive; uva was 250 uw/cm2” (Test System: AMES SALMONELLA TYPHIMURIUM, Strain/Indicator: TA98, Metabolic Activation: NONE, BACTERIA IRRADIATED IN PRESENCE OF TEST COMPOUND WITH UVA FOR 10 MIN, TRANSFERRED TO MEDIUM, Metabolic Activation: NONE, BACTERIA IRRADIATED IN PRESENCE OF TEST COMPOUND WITH UVA FOR 10 MIN, TRANSFERRED TO MEDIUM, Method: STANDARD PLATE). Further, the mutagenic call was “inactive; negative” under setting [1]; “inactive; negative” (Test System: AMES SALMONELLA TYPHIMURIUM, Strain/Indicator: TA98, Metabolic Activation: RAT, LIVER, S-9, AROCLOR 1254 (30%), Method: PREINCUBATION); “inactive; negative” (Test System: AMES SALMONELLA TYPHIMURIUM, Strain/Indicator: TA100, Metabolic Activation: HAMSTER, LIVER, S-9, AROCLOR 1254 (30%), Method: PREINCUBATION); “active; positive; uva was 250 uw/cm2” (Test System: AMES SALMONELLA TYPHIMURIUM, Strain/Indicator: TA100, Metabolic Activation: NONE, BACTERIA IRRADIATED IN PRESENCE OF TEST COMPOUND WITH UVA FOR 10 MIN, TRANSFERRED TO MEDIUM, Metabolic Activation: NONE, BACTERIA IRRADIATED IN PRESENCE OF TEST COMPOUND WITH UVA FOR 10 MIN, TRANSFERRED TO MEDIUM, Method: STANDARD PLATE); “inactive; negative” under setting [2]; “inactive; negative” (Test System: AMES SALMONELLA TYPHIMURIUM, Strain/Indicator: TA100, Metabolic Activation: RAT, LIVER, S-9, AROCLOR 1254 (30%), Method: PREINCUBATION). Also, the mutagenic call was “active; positive; uva was 250 uw/cm2” (Test System: AMES SALMONELLA TYPHIMURIUM, Strain/Indicator: TA104, Metabolic Activation: NONE, BACTERIA IRRADIATED IN PRESENCE OF TEST COMPOUND WITH UVA FOR 10 MIN, TRANSFERRED TO MEDIUM, Metabolic Activation: NONE, BACTERIA IRRADIATED IN PRESENCE OF TEST COMPOUND WITH UVA FOR 10 MIN, TRANSFERRED TO MEDIUM, Method: STANDARD PLATE) and “active; positive; uva was 250 uw/cm2” (Test System: E. COLI, Strain/Indicator: WP2S/PKM101, Metabolic Activation: NONE, BACTERIA IRRADIATED IN PRESENCE OF TEST COMPOUND WITH UVA FOR 10 MIN, TRANSFERRED TO MEDIUM, Metabolic Activation: NONE, BACTERIA IRRADIATED IN PRESENCE OF TEST COMPOUND WITH UVA FOR 10 MIN, TRANSFERRED TO MEDIUM, Method: STANDARD PLATE).

With `O=C(CCl)Nc1snc2ccccc12`, the mutagenic call by setting is: under setting [4], “inactive; negative”; (Test System: AMES SALMONELLA TYPHIMURIUM, Strain/Indicator: TA98, Metabolic Activation: S-9, Method: STANDARD PLATE) “active; positive”; under setting [5], “inactive; negative”; (Test System: AMES SALMONELLA TYPHIMURIUM, Strain/Indicator: TA100, Metabolic Activation: S-9, Method: STANDARD PLATE) “active; positive”; (Test System: AMES SALMONELLA TYPHIMURIUM, Strain/Indicator: TA1535, Metabolic Activation: NONE, Method: STANDARD PLATE) “inactive; negative”; (Test System: AMES SALMONELLA TYPHIMURIUM, Strain/Indicator: TA1535, Metabolic Activation: S-9, Method: STANDARD PLATE) “inactive; negative”. In addition, the mutagenic call by setting is: (Test System: AMES SALMONELLA TYPHIMURIUM, Strain/Indicator: TA1537, Metabolic Activation: NONE, Method: STANDARD PLATE) “active; positive”; (Test System: AMES SALMONELLA TYPHIMURIUM, Strain/Indicator: TA1537, Metabolic Activation: S-9, Method: STANDARD PLATE) “active; positive”.

For the origin of these results see PubChem BioAssay AID1259407 (Chemical Carcinogenesis Research Information System (CCRIS), 2018).
